The results in this text go back to ChEMBL document CHEMBL1150037, “Calcineurin has a very tight-binding pocket for the side chain of residue 4 of cyclosporin” (1994).

A short description of experiment [1]: Immunosuppressive activity with the help of a reporter gene assay for IL-2 (IL2-RGA) relative to cyclosporin as 1. It is filed as functional. Background: Reporter assays use an easily measured gene product as a stand-in for the process of interest.
For experiment [2], the species on record is Mus musculus. In words: Immunosuppressive activity by mouse mixed lymphocyte reaction (MLR_M) relative to cyclosporin as 1. It is filed as functional.
Experiment [3] concerns the target Peptidyl-prolyl cis-trans isomerase A (Rattus norvegicus) (UniProt P10111). The experiment in a line: In vitro affinity towards cyclophilin A was determined under competitive ELISA systems using protein-conjugated ligand CsA.

Peptidyl-prolyl cis-trans isomerase A (Rattus norvegicus), sequence (P10111 whole entry): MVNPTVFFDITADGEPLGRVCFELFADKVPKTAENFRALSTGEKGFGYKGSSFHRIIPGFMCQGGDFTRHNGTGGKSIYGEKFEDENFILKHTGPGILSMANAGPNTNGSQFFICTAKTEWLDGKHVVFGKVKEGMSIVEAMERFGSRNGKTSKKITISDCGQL

Consider `C/C=C/C[C@@H](C)[C@@H](O)[C@H]1C(=O)N[C@@H](CC)C(=O)N(C)CC(=O)N(C)[C@@H](CCC(C)C)C(=O)N[C@@H](C(C)C)C(=O)N(C)[C@@H](CC(C)C)C(=O)N[C@@H](C)C(=O)N[C@H](C)C(=O)N(C)[C@@H](CC(C)C)C(=O)N(C)[C@@H](CC(C)C)C(=O)N(C)C(C(C)C)C(=O)N1C` (single isomer, unassigned), for which the values for the Relative IC50 in experiment [1], in experiment [2] and in experiment [3] were 9, 3.5 and 1.9, respectively.

Regarding `C=C(C)C[C@H]1C(=O)N[C@@H](C(C)C)C(=O)N(C)[C@@H](CC(C)C)C(=O)N[C@@H](C)C(=O)N[C@H](C)C(=O)N(C)[C@@H](CC(C)C)C(=O)N(C)[C@@H](CC(C)C)C(=O)N(C)C(C(C)C)C(=O)N(C)[C@@H]([C@H](O)[C@H](C)C/C=C/C)C(=O)N[C@@H](CC)C(=O)N(C)CC(=O)N1C` (single isomer, unassigned), the Relative IC50 in experiment [1] is 4; in experiment [2], 1.6; in experiment [3] it was 1.8.

For `C/C=C/C[C@@H](C)[C@@H](O)[C@H]1C(=O)N[C@@H](CC)C(=O)N(C)CC(=O)N(C)[C@@H](CC(C)(C)O)C(=O)N[C@@H](C(C)C)C(=O)N(C)[C@@H](CC(C)C)C(=O)N[C@@H](C)C(=O)N[C@H](C)C(=O)N(C)[C@@H](CC(C)C)C(=O)N(C)[C@@H](CC(C)C)C(=O)N(C)[C@@H](C(C)C)C(=O)N1C`, the figures for the Relative IC50 in experiment [1], in experiment [2] and in experiment [3] were 110, 130 and 0.9, respectively.

For the compound `C/C=C/C[C@@H](C)[C@@H](O)[C@H]1C(=O)N[C@@H](CC)C(=O)N(C)CC(=O)N(C)[C@@H](C(C)C)C(=O)N[C@@H](C(C)C)C(=O)N(C)[C@@H](CC(C)C)C(=O)N[C@@H](C)C(=O)N[C@H](C)C(=O)N(C)[C@@H](CC(C)C)C(=O)N(C)[C@@H](CC(C)C)C(=O)N(C)C(C(C)C)C(=O)N1C` (single isomer, unassigned), the Relative IC50 in experiment [1] amounted to 2500; in experiment [2], 130; in experiment [3], 0.5.

As for `C/C=C/C[C@@H](C)[C@@H](O)[C@H]1C(=O)N[C@@H](CC)C(=O)N(C)CC(=O)N(C)[C@@H](CC(C)(C)F)C(=O)N[C@@H](C(C)C)C(=O)N(C)[C@@H](CC(C)C)C(=O)N[C@@H](C)C(=O)N[C@H](C)C(=O)N(C)[C@@H](CC(C)C)C(=O)N(C)[C@@H](CC(C)C)C(=O)N(C)[C@@H](C(C)C)C(=O)N1C`, the figures for the Relative IC50 in experiment [1], in experiment [2] and in experiment [3] were 7, 25 and 2.1, respectively.

Take `C/C=C/C[C@@H](C)[C@@H](O)[C@H]1C(=O)N[C@@H](CC)C(=O)N(C)CC(=O)N(C)[C@@H](CC2CC2)C(=O)N[C@@H](C(C)C)C(=O)N(C)[C@@H](CC(C)C)C(=O)N[C@@H](C)C(=O)N[C@H](C)C(=O)N(C)[C@@H](CC(C)C)C(=O)N(C)[C@@H](CC(C)C)C(=O)N(C)C(C(C)C)C(=O)N1C` (single isomer, unassigned): the Relative IC50 in experiment [1] was found to be 5.3; in experiment [2], 5; in experiment [3] it was 2.8.

Take `C/C=C/C[C@@H](C)[C@@H](O)[C@H]1C(=O)N[C@@H](CC)C(=O)N(C)CC(=O)N(C)[C@@H](CC)C(=O)N[C@@H](C(C)C)C(=O)N(C)[C@@H](CC(C)C)C(=O)N[C@@H](C)C(=O)N[C@H](C)C(=O)N(C)[C@@H](CC(C)C)C(=O)N(C)[C@@H](CC(C)C)C(=O)N(C)C(C(C)C)C(=O)N1C` (single isomer, unassigned): the Relative IC50 came out at 163 in experiment [1], 65 in experiment [2] and 1.2 in experiment [3].
